From patent US7049292B2, “Therapeutically effective peptides related to preproinsulin” (King's College London, priority 2004, dated 2006)
Values joined by “and” are separate entries in the source; they are usually repeats but may differ in a detail not shown here. Identical values can stand only once. Like-named read-outs stand apart in the source and are kept apart here. Ends that are not written are not given here.

Key:
[1] = system: pathogenic (IFN-γ) CD4+ T lymphocytes in PBMCs; assay: IFN-γ ELISPOT analysis of PBMCs cultured with peptide; assay type: cell-based, human; settings: for Prevalence of IFN-γ responses, Totals (%) / Prevalence of IFN-γ responses, Totals (responders/tested): positive response SI≧3.0; for IFN-γ response, stimulation index (SI): PBMCs, peptide 10 μM
[2] = system: anti-inflammatory (IL-10 secreting) CD4+ T lymphocytes in PBMCs; assay type: cell-based, human; settings: for IL-10 response, stimulation index (SI): PBMCs, peptide 10 μM
[3] = T1DM patients with HLA-DR4 alleles
[4] = T1DM patients with non-DR4 alleles
[5] = non-diabetic control subject C9
[6] = patient #3, T1DM with HLA-DR4 alleles
[7] = patient #5, T1DM with HLA-DR4 alleles
[8] = patient #6, T1DM with HLA-DR4 alleles
[9] = patient #24, T1DM with HLA-DR4 alleles
[10] = patient #27, T1DM with non-DR4 alleles
[11] = non-diabetic control subject C4
[12] = non-diabetic control subject C8
[13] = patient #35, T1DM with non-DR4 alleles
[14] = patient #4, T1DM with HLA-DR4 alleles
[15] = patient #13, T1DM with HLA-DR4 alleles
[16] = patient #19, T1DM with HLA-DR4 alleles
[17] = non-diabetic control subject C13
[18] = patient #26, T1DM with non-DR4 alleles
[19] = patient #30, T1DM with non-DR4 alleles
[20] = non-diabetic control subjects, positive response SI≧3.0
[21] = patient #28, T1DM with non-DR4 alleles
[22] = patient #10, T1DM with HLA-DR4 alleles
[23] = patient #12, T1DM with HLA-DR4 alleles

Row | Substance | Prevalence of IFN-γ responses, Totals (%) [1, 3] | Prevalence of IFN-γ responses, Totals (responders/tested) [1, 3] | Prevalence of IFN-γ responses, Totals (%) [1, 4] | Prevalence of IFN-γ responses, Totals (responders/tested) [1, 4] | Prevalence of IFN-γ responses, Totals (%) ([1]; non-diabetic control subjects) | Prevalence of IFN-γ responses, Totals (responders/tested) ([1]; non-diabetic control subjects) | IFN-γ response, stimulation index (SI) [1, 6] | IFN-γ response, stimulation index (SI) [1, 7] | IFN-γ response, stimulation index (SI) [1, 8] | IFN-γ response, stimulation index (SI) [1, 9] | Prevalence of IL-10 responses, Totals (responders/tested) [2] | IL-10 response, stimulation index (SI) [2, 11] | IL-10 response, stimulation index (SI) [2, 12] | IL-10 response, stimulation index (SI) [2, 6] | IL-10 response, stimulation index (SI) [2, 9] | IL-10 response, stimulation index (SI) [2, 13] | IFN-γ response, stimulation index (SI) [1, 14] | IFN-γ response, stimulation index (SI) [1, 16] | IL-10 response, stimulation index (SI) [2, 10] | IFN-γ response, stimulation index (SI) [1, 18] | also measured
1 | 652–80: IA-2 peptide sequence, residues 652–80 (SRVSSVSSQFSDAAQASPSSHSSTPSWCE; UniProt Q16849 652-680, looked up, fragment) | (24) % | 6/25 | (9) % | 1/11 | (7) % | 1/14 | 3.0 | 6.2 | 23.2 | 36.0 | 2/17 and 1/7 and 4/14 | 5.3 | 4.0 | 4.8 | 4.5 | 8.0 |  |  |  |  | IFN-γ response, stimulation index (SI) [1, 5]: 3.8; IFN-γ response, stimulation index (SI) ([1]; patient #2, T1DM with HLA-DR4 alleles): 3.1; IFN-γ response, stimulation index (SI) ([1]; patient #7, T1DM with HLA-DR4 alleles): 6.4; IFN-γ response, stimulation index (SI) [1, 10]: 16.7; IL-10 response, stimulation index (SI) [2, 5]: 3.5; IL-10 response, stimulation index (SI) ([2]; non-diabetic control subject C10): 8.4
2 | 793–817: IA-2 peptide sequence, residues 793–817 (DFWQMVWESGCTVIVMLTPLVEDGV; UniProt Q16849 793-817, looked up, fragment) | (12) % | 3/25 | (0) % | 0/11 | (0) % | 0/14 | 9.7 |  |  |  | 1/17 and 1/7 and 2/14 | 3.4 |  | 3.0 |  |  | 3.5 | 19.0 | 34.0 |  | IFN-γ response, stimulation index (SI) [1, 15]: 4.1; IL-10 response, stimulation index (SI) [2, 17]: 3.5
3 | 955–76: IA-2 peptide sequence, residues 955–76 (SKDQFEFALTAVAEEVNAILKA; UniProt Q16849 955-976, looked up, fragment) | (16) % | 4/25 | (18) % | 2/11 | (0) % | 0/14 | 4.7 |  | 11.2 | 38.0 | 2/17 and 1/7 | 5.6 | 15.0 | 3.0 | 29.5 |  | 3.0 | 3.0 | 4.0 | 5.0 | IFN-γ response, stimulation index (SI) [1, 19]: 4.7; IL-10 response, stimulation index (SI) ([2]; non-diabetic control subject C11): 5.2; Prevalence of IL-10 responses, Totals (responders/tested) [2, 20]: 3/14
4 | GGGPGAGSLQPLALEGSLQK [C13-C32, preproinsulin peptide, residues C13-C32] | (12) % | 2/17 | (25) % | 2/8 | (0) % | 0/14 |  | 3.8 | 8.6 |  |  |  |  |  |  |  |  |  |  |  | IFN-γ response, stimulation index (SI) [1, 21]: 11.5; IFN-γ response, stimulation index (SI) ([1]; patient #29, T1DM with non-DR4 alleles): 4.7; Prevalence of IL-10 responses, Totals (responders/tested) ([2]; listed as C13–32): 1/12 and 1/5 and 1/13
5 | GSLQPLALEGSLQKRGIV [C19-A3] | (47) % | 8/17 | (38) % | 3/8 | (0) % | 0/14 | 10.7 |  | 63.6 |  | 1/12 and 2/5 |  | 29.0 | 10.21 |  |  | 3.5 |  | 7.0 | 3.3 | IFN-γ response, stimulation index (SI) ([1]; patient #8, T1DM with HLA-DR4 alleles): 3.0; IFN-γ response, stimulation index (SI) ([1]; patient #9, T1DM with HLA-DR4 alleles): 4.6; IFN-γ response, stimulation index (SI) [1, 22]: 5.0; IFN-γ response, stimulation index (SI) ([1]; patient #11, T1DM with HLA-DR4 alleles): 3.3; IFN-γ response, stimulation index (SI) [1, 23]: 10.7; IFN-γ response, stimulation index (SI) [1, 21]: 5.0; IFN-γ response, stimulation index (SI) [1, 19]: 5.7; IL-10 response, stimulation index (SI) ([2]; non-diabetic control subject C5): 10.3; IL-10 response, stimulation index (SI) [2, 17]: 5.0; Prevalence of IL-10 responses, Totals (responders/tested) [2, 20]: 3/13; IL-10 response, stimulation index (SI) ([2]; patient #33, T1DM with non-DR4 alleles): 3.1
6 | KLKVESSPSRSDYINASPIIEHDP [752–75, IA-2 peptide eluted from HLA-DR4] | (32) % | 8/25 | (9) % | 1/11 | (0) % | 0/14 | 4.3 |  |  |  |  |  | 16.0 | 16.0 | 15.0 | 4.0 |  | 7.0 | 33.0 | 3.0 | IFN-γ response, stimulation index (SI) [1, 22]: 12.3; IFN-γ response, stimulation index (SI) [1, 23]: 3.3; IFN-γ response, stimulation index (SI) [1, 15]: 3.4; IFN-γ response, stimulation index (SI) ([1]; patient #20, T1DM with HLA-DR4 alleles): 3.9; IFN-γ response, stimulation index (SI) ([1]; patient #23, T1DM with HLA-DR4 alleles): 3.6; Prevalence of IL-10 responses, Totals (responders/tested) ([2]; T1DM patients with HLA-DR4 alleles, positive response SI≧3.0): 3/17; Prevalence of IL-10 responses, Totals (responders/tested) ([2]; listed as 725–75): 2/7 and 2/14; IL-10 response, stimulation index (SI) ([2]; non-diabetic control subject C3): 8.7; IL-10 response, stimulation index (SI) [2, 23]: 3.79
